# What was measured:
# [1] = molecular target: Dipeptidyl protease IV (DPP-IV) (Homo sapiens, UniProt P27487); settings: cited from earlier work
# db/db mice = test: Reduction of fasting blood glucose in db/db mice; format: in vivo; settings: intravenous; for blood glucose at 4 and 8 hours post treatment: food access after 4 hours
# Protocol: Synthetic GLP-1 peptide and recombinant GLP-1 Surrobody fusions were evaluated for their ability to lower plasma glucose in db/db mice. To reduce the effects of in vivo DPPIV proteolysis during the time course of the study GLP-1 both synthetic and recombinant GLP-1 functionally null Surrobodies used a GLP-1 variant containing a serine substitution for alanine at position 8 that reduces DPPIV inactivation. 8 db/db mice were used per group: Control SgG (3 mg/kg) (functionally null SgG that lacks the GLP-1 conjugate); GLP-1 peptide (0.8 mg/kg); GLP-1 SgG (1 mg/kg); and GLP-1 (3 mg/kg). Essentially db/db mice were matched by weight and relative blood glucose levels. Next, the subjects were injected intravenously with test article and isolated with access to water, but not food. Glucose levels were monitored by handheld glucometer after 1 hour and 4 hours. After 4 hours the mice were allowed free access to both food and water. An additional reading was made at 8 hours following drug administration.
# Dipeptidyl protease IV (DPP-IV), sequence (P27487 whole entry): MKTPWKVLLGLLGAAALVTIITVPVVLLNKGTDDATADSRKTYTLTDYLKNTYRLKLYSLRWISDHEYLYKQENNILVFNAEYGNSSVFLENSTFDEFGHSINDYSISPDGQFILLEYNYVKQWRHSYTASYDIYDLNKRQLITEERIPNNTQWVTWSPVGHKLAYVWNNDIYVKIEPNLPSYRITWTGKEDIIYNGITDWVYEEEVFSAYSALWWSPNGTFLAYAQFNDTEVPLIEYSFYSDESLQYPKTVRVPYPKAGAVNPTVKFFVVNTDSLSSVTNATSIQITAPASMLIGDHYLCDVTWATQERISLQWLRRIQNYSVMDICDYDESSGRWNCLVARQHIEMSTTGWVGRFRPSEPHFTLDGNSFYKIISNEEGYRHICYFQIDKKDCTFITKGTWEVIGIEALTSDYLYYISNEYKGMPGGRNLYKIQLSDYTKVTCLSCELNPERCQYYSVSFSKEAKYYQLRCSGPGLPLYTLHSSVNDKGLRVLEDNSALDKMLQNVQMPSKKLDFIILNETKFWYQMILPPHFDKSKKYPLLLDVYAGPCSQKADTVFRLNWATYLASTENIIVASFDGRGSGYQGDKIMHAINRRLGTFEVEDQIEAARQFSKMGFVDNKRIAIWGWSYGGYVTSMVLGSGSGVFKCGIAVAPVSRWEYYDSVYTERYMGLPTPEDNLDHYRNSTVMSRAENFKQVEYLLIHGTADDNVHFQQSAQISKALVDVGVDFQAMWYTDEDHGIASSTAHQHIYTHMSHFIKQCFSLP
Sequence,time to inactivation by DPP-IV [1],"blood glucose reduction overall, through 8 hours (db/db mice; 1 and 3 mg/kg, FIG. 17)",resistance to proteolytic inactivation by DPP-IV [1],"blood glucose after 1 hour (db/db mice; fasted, GLP-1 SgG 1 and 3 mg/kg, GLP-1 peptide 0.8 mg/kg)","blood glucose at 4 and 8 hours post treatment (db/db mice; GLP-1 SgG 1 and 3 mg/kg, GLP-1 peptide 0.8 mg/kg)","blood glucose at 4 and 8 hours post treatment (db/db mice; GLP-1 SgG 1 and 3 mg/kg, GLP-1 peptide 0.8 mg/kg, listed as GLP-1 peptide control)"
HAEGTFTSDVSSYLEGQAAKEFIAWLVKGRG [GLP-1],≤ 2 min,acutely reduces blood glucose through 8 hours,,,,
"HSEGTFTSDVSSYLEGQAAKEFIAWLVKGRG [GLP-1 peptide, GLP-1 receptor agonist with serine for alanine substitution at position 8]",,,markedly resistant,considerable blood glucose reduction,started to approach levels of control Surrobody,unable to maintain the same degree of blood glucose levels

# Source: patent US20120269830A1, “CONJUGATES WITH IMPROVED PHARMACOKINETIC PROPERTIES” (priority 2009, published 2012)
